Patent publication US20190275061A1, “INHIBITION OF FIBROSIS IN NON ALCOHOL FATTY LIVER DISEASE PATIENTS” (GALMED RESEARCH AND DEVELOPMENT LTD, priority 2016, published 2019)
Entries after “also recorded” stand apart in the source; their conditions may differ.

What was measured:
[1] = system: 0.1 MCD diet mouse model of NASH; test: 0.1% methionine- and choline-deficient (0.1 MCD) diet mouse model of NASH; type: in vivo, C57B1/6 mice; details: 5 mg/Kg/day orally by gavage, 0.1 MCD-fed mice
Description: The study described below investigates the mechanism of action of Aramchol and its potential effect on fibrosis using the 0.1% methionine- and choline-deficient (0.1 MCD) diet mouse model of NASH.
C57B1/6 were fed the Methionine and Choline Deficient (MCD) and control diet and were sacrificed after 4 weeks. The MCD diet induces aminotransferase elevation and changes in hepatic histological features, characterized by steatosis, local inflammation, hepatocyte necrosis and fibrosis. These changes occur rapidly and are morphologically similar to those observed in human NASH. In this study the MCD diet contained 0.1% methionine to minimize and stabilize weight loss. At the end of the second week, after verification of established NASH, 0.1 MCD-fed mice were treated orally by gavage with Aramchol (5 mg/Kg/day) or vehicle (n=10, each condition). Control diet-fed mice were also treated with vehicle for same duration (n=10). At the end of the experiment, blood and liver samples were obtained. A diagram of the experimental design is shown below: […]

[2] = system: COL1A1; test: COL1A1 expression in LX-2 human hepatic stellate cells; type: cell-based; details: LX-2 cells, Aramchol 10 mM, 24 hours, RNA
Protocol: (§1) LX2 cells (150.000 cells per well) were plated in DMEM media containing antibiotics, glutamine and bovine fetal serum. After 24 hours incubation, media was changed to 0% serum and incubated for an additional period of 16 hours. Then, Aramchol (10 mM) was added and 24 hours later RNA was extracted with Trizol.

[3] = system: PPAR-γ; test: PPAR-γ expression in LX-2 human hepatic stellate cells; type: cell-based; details: LX-2 cells, Aramchol 10 mM, 24 hours, RNA
Protocol: as §1

[4] = system: Thioacetamide (TAA)-Induced Fibrosis; test: Thioacetamide (TAA)-induced fibrosis, model for hepatic cirrhosis; type: in vivo; details: 5 mg/kg co-administered with TAA, 10 weeks, Wistar rats
Protocol: Liver fibrosis was induces in Wistar rats by intraperitoneal injections of TAA […] body weight) twice per week during 10 weeks. I.p. application of TAA results in hepatic centrolobular necrosis, elevated transaminase activity and robust liver fibrosis. Treatment groups further included co-administration of Aramchol (1 or 5 mg/kg orally) or obaticholic acid (OCA, 5 mg/kg). A control group of saline-treated rats (in the absence of TAA administration) was further included. Rats were then sacrificed, and livers were observed macroscopically for signs of cirrhosis and necrotic lesions, and microscopically, following Masson Goldner staining. The fibrosis score, calculated at a scale of 0-4, was determined for each sample, wherein 0 indicates no fibrosis and 4 indicates advanced fibrosis and cirrhosis.

[5] = system: LX-2 human hepatic stellate cells; test: Collagen production from LX-2 human hepatic stellate cells; type: cell-based; details: LX-2 cells, relative to a DMSO control

SMILES: CCCCCCCCCCCCCCCCCCCC(=O)N[C@H]1CCC2(C)C(CC(O)C3C2C[C@H](O)C2(C)C(C(C)CCC(=O)O)CCC32)C1 (stereo in doubt) [Aramchol, 3β-arachidylamido-7α, 12α-dihydroxy-5β-cholan-24-oic acid]
- FA(16:1)/FA(16:0) ratio [1]: marked decrease
- SCD1 activity [1]: reduced
- SCD1 expression [1]: marked decrease
- content of total oxFA including oxLA [1]: marked reduction
- hepatic content of diglycerides (DG) and TG [1]: reduction
- oxidative stress [1]: improved
- total content of monounsaturated FA (MUFA) [1]: marked decrease
- fibrosis in the liver (sirius red) ([1]; from end of week 2 to week 4): significantly down regulates/normalizes; also recorded: reduction
- infiltration and activation status of macrophages in the liver (F4/80 and CD64) ([1]; from end of week 2 to week 4): significantly down regulates/normalizes; also recorded: reduction
- steatosis in the liver (Sudan III) ([1]; from end of week 2 to week 4): significantly down regulates; also recorded: reduction
- GSH/GSSG ratio ([1]; liver): elevates; also recorded: normalization
- glutathione ([1]; liver): significantly up regulates
- collagen in the liver ([1]; liver extract): significantly down regulates
- COL1A1 expression [2]: significantly reduced
- PPARγ expression [3]: up-regulation
- TAA induced fibrosis [4]: significantly prevented; also recorded: significantly inhibited
- collagen distribution in the tissue (FIG. 2) [4]: reduced significantly
- development of necrosis and cirrhosis (macroscopic, FIG. 1) [4]: reduced significantly; also recorded: significantly inhibited
- fibrotic score (Masson Goldner staining, scale 0-4, FIG. 2) [4]: reduced significantly
- collagen production [5]: significantly down regulates
